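Five concentrations, 48 hours, 96-well plates. Abbreviation: GI50, concentration required for 50% inhibition of growth.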 Active and inactive are the calls of the source. Rule as the data show it: active = GI50 up to about 1.1 µM and inactive = higher.
Key:
Experiment in all cases: DTP human tumour cell line panel, 48 h
[1] = system: CAKI-1
[2] = system: A498
[3] = system: UACC-257
[4] = system: 786-0
[5] = system: SNB-75
[6] = system: SNB-19
[7] = system: CCRF-CEM
[8] = system: Malme-3M
[9] = system: SF-295
[10] = system: SR
[11] = system: A549
[12] = system: HCT-15
[13] = system: OVCAR-3
[14] = system: U-251
[15] = system: OVCAR-4
[16] = system: HL-60
[17] = system: TK-10

Q: Which GI50 [1] does the source give for Nc1c(-c2nc3ccccc3[nH]2)sc(=S)n1-c1ccccc1 here?
A: Its GI50 is > 100 µM (inactive).

Q: And the GI50 [2]?
A: Its GI50 is > 100 µM (inactive).

Q: What about the GI50 [3] of the same compound?
A: Its GI50 is > 100 µM (inactive).

Q: And the GI50 [4]?
A: The GI50 was 61.2 µM (inactive).

Q: And the GI50 [5]?
A: The GI50 was 44.8 µM (inactive).

Q: What about the GI50 [6] of the same compound?
A: Its GI50 is > 100 µM (inactive).

Q: What about the GI50 [7] of the same compound?
A: Its GI50 is 26.1 µM (inactive).

Q: What about the GI50 [8] of the same compound?
A: Its GI50 is 70.8 µM (inactive).

Q: And the GI50 [9]?
A: Its GI50 is 72.8 µM (inactive).

Q: And the GI50 [10]?
A: Its GI50 is 30.3 µM (inactive).

Q: What about the GI50 [11] of the same compound?
A: The GI50 was > 100 µM (inactive).

Q: And the GI50 [12]?
A: Its GI50 is over 100 µM.

Q: What about the GI50 [13] of the same compound?
A: The GI50 was 51.2 µM (inactive).

Q: What about the GI50 [14] of the same compound?
A: The GI50 was 76.7 µM (inactive).

Q: And the GI50 [15]?
A: The GI50 was > 100 µM (inactive).

Q: What about the GI50 [16] of the same compound?
A: The GI50 was > 100 µM (inactive).

Q: O=[N+]([O-])c1ccc(C2=Nn3cnnc3SC2)o1 was tested. Which GI50 [1] did it give?
A: The GI50 was > 10 µM (inactive).

Q: And the GI50 [2]?
A: The GI50 was 16.3 µM (inactive).

Q: What about the GI50 [3] of the same compound?
A: The GI50 was 15.5 µM (inactive).

Q: And the GI50 [4]?
A: The GI50 was 17.3 µM (inactive).

Q: And the GI50 [5]?
A: The GI50 was 25.3 µM (inactive).

Q: What about the GI50 [6] of the same compound?
A: The GI50 was 29 µM (inactive).

Q: And the GI50 [17]?
A: Its GI50 is 39.7 µM (inactive).

Q: And the GI50 [7]?
A: Its GI50 is 23 µM (inactive).

Q: And the GI50 [8]?
A: Its GI50 is > 10 µM (inactive).

Q: And the GI50 [9]?
A: Its GI50 is 18.3 µM (inactive).

Q: And the GI50 [10]?
A: The GI50 was 16.7 µM (inactive).

Q: And the GI50 [11]?
A: The GI50 was 20.6 µM (inactive).

Q: What about the GI50 [12] of the same compound?
A: The GI50 was 12 µM.

Q: What about the GI50 [13] of the same compound?
A: The GI50 was 17.1 µM (inactive).

Q: What about the GI50 [14] of the same compound?
A: The GI50 was 16.3 µM (inactive).

Q: What about the GI50 [15] of the same compound?
A: The GI50 was > 10 µM (inactive).

Q: And the GI50 [16]?
A: The GI50 was 14.8 µM (inactive).

Q: Which results are given for O/N=C1/C(=C/c2ccc(OCc3ccccc3)cc2)CCCC1C(NO)c1ccc(OCc2ccccc2)cc1 (configuration not stated)?
A: GI50 [1]: 5.87 µM (inactive); GI50 [2]: > 100 µM (inactive); GI50 [3]: 10 µM (inactive); GI50 [4]: 18.5 µM (inactive); GI50 [5]: 34 µM (inactive); GI50 [6]: 80.9 µM (inactive); GI50 [7]: 11.1 µM (inactive); GI50 [8]: 46.5 µM (inactive); GI50 [10]: 11.8 µM (inactive); GI50 [11]: > 100 µM (inactive); GI50 [12]: 6.24 µM; GI50 [13]: 14.2 µM (inactive); GI50 [14]: 10.5 µM (inactive); GI50 [15]: 6.41 µM (inactive); GI50 [16]: 5.57 µM (inactive)

Q: What does the source list for O=C1C2=C(N[C@@H](c3ccccc3)[C@H](c3ccccc3)N2)C(=O)c2ccccc21?
A: GI50 [1]: > 100 µM (inactive); GI50 [2]: > 100 µM (inactive); GI50 [3]: > 100 µM (inactive); GI50 [4]: 76.4 µM (inactive); GI50 [5]: 51.8 µM (inactive); GI50 [6]: > 100 µM (inactive); GI50 [17]: > 100 µM (inactive); GI50 [7]: > 100 µM (inactive); GI50 [8]: > 100 µM (inactive); GI50 [9]: > 100 µM (inactive); GI50 [10]: > 100 µM (inactive); GI50 [11]: > 100 µM (inactive); GI50 [12]: > 100 µM; GI50 [13]: > 100 µM (inactive); GI50 [14]: > 100 µM (inactive); GI50 [15]: > 100 µM (inactive); GI50 [16]: > 100 µM (inactive)

Q: How did the GI50 [1] turn out when Cc1cc(N(CCC#N)CCC#N)ccc1/C(Sc1ccccc1)=C(\NC(=O)/C=C/c1ccccc1)C(=O)Sc1ccccc1 was run?
A: Its GI50 is 2.05 µM (inactive).

Q: And the GI50 [2]?
A: Its GI50 is 4.06 µM (inactive).

Q: What about the GI50 [3] of the same compound?
A: Its GI50 is 5.53 µM (inactive).

Q: What about the GI50 [4] of the same compound?
A: The GI50 was 2.28 µM (inactive).

Q: What about the GI50 [5] of the same compound?
A: The GI50 was 2.13 µM (inactive).

Q: What about the GI50 [6] of the same compound?
A: Its GI50 is 9.84 µM (inactive).

Q: What about the GI50 [17] of the same compound?
A: Its GI50 is 5.35 µM (inactive).

Q: And the GI50 [7]?
A: The GI50 was 0.271 µM (active).

Q: What about the GI50 [8] of the same compound?
A: Its GI50 is 8.28 µM (inactive).

Q: And the GI50 [9]?
A: Its GI50 is 3.17 µM (inactive).

Q: What about the GI50 [10] of the same compound?
A: Its GI50 is 0.665 µM (active).

Q: What about the GI50 [11] of the same compound?
A: The GI50 was 2.02 µM (inactive).

Q: And the GI50 [12]?
A: Its GI50 is 3.73 µM.

Q: What about the GI50 [13] of the same compound?
A: The GI50 was 2.92 µM (inactive).

Q: And the GI50 [14]?
A: Its GI50 is 0.82 µM (active).

Q: What about the GI50 [15] of the same compound?
A: The GI50 was 3.06 µM (inactive).

Q: What about the GI50 [16] of the same compound?
A: Its GI50 is 0.628 µM (active).

Q: Which GI50 [1] does the source give for CC(=O)Nc1[nH]n(C)c(=O)c1-c1nnc(C)s1 here?
A: The GI50 was > 100 µM (inactive).

Q: What about the GI50 [2] of the same compound?
A: Its GI50 is > 100 µM (inactive).

Q: And the GI50 [3]?
A: Its GI50 is > 100 µM (inactive).

Q: And the GI50 [4]?
A: Its GI50 is > 100 µM (inactive).

Q: And the GI50 [5]?
A: Its GI50 is > 100 µM (inactive).

Q: What about the GI50 [6] of the same compound?
A: Its GI50 is > 100 µM (inactive).

Q: And the GI50 [17]?
A: Its GI50 is > 100 µM (inactive).

Q: And the GI50 [7]?
A: Its GI50 is > 100 µM (inactive).

Q: What about the GI50 [8] of the same compound?
A: The GI50 was > 100 µM (inactive).

Q: And the GI50 [10]?
A: The GI50 was > 100 µM (inactive).

Q: What about the GI50 [11] of the same compound?
A: Its GI50 is > 100 µM (inactive).

Q: What about the GI50 [12] of the same compound?
A: Its GI50 is over 100 µM.

Q: What about the GI50 [13] of the same compound?
A: Its GI50 is > 100 µM (inactive).

Q: And the GI50 [14]?
A: Its GI50 is > 100 µM (inactive).

Q: And the GI50 [15]?
A: The GI50 was > 100 µM (inactive).

Q: And the GI50 [16]?
A: Its GI50 is > 100 µM (inactive).

Q: Cc1nc(N)nc(N)c1CCCCc1ccccc1 was tested. Which GI50 [1] did it give?
A: The GI50 was 23.4 µM (inactive).

Q: What about the GI50 [2] of the same compound?
A: The GI50 was 18.2 µM (inactive).

Q: What about the GI50 [3] of the same compound?
A: Its GI50 is 10.2 µM (inactive).

Q: And the GI50 [4]?
A: Its GI50 is 4.52 µM (inactive).

Q: And the GI50 [5]?
A: The GI50 was 47 µM (inactive).

Q: What about the GI50 [6] of the same compound?
A: The GI50 was 32.4 µM (inactive).

Q: And the GI50 [17]?
A: Its GI50 is 43.2 µM (inactive).

Q: And the GI50 [7]?
A: The GI50 was 3.72 µM (inactive).

Q: And the GI50 [8]?
A: Its GI50 is 13.3 µM (inactive).

Q: What about the GI50 [9] of the same compound?
A: Its GI50 is 6.65 µM (inactive).

Q: And the GI50 [10]?
A: Its GI50 is 13.3 µM (inactive).

Q: And the GI50 [11]?
A: Its GI50 is 3.67 µM (inactive).

Q: And the GI50 [12]?
A: The GI50 was 5.97 µM.

Q: What about the GI50 [13] of the same compound?
A: The GI50 was 9.95 µM (inactive).

Q: And the GI50 [14]?
A: Its GI50 is 11.2 µM (inactive).

Q: And the GI50 [15]?
A: The GI50 was 58.6 µM (inactive).

Q: And the GI50 [16]?
A: The GI50 was 4.55 µM (inactive).

Q: Which results are given for O=C(Nc1ccc([N+](=O)[O-])cc1[N+](=O)[O-])C(=O)C(C(=O)c1ccc(Cl)c(Cl)c1)C1OC(=O)c2ccccc21 (configuration not stated)?
A: GI50 [1]: 38 µM (inactive); GI50 [2]: 21.4 µM (inactive); GI50 [3]: 22.6 µM (inactive); GI50 [4]: 18.5 µM (inactive); GI50 [5]: > 100 µM (inactive); GI50 [6]: 18.6 µM (inactive); GI50 [17]: 32.1 µM (inactive); GI50 [7]: 22.6 µM (inactive); GI50 [8]: 26.3 µM (inactive); GI50 [9]: 17.8 µM (inactive); GI50 [10]: 26.5 µM (inactive); GI50 [11]: 26.1 µM (inactive); GI50 [12]: 27.2 µM; GI50 [13]: 27.7 µM (inactive); GI50 [14]: 30.3 µM (inactive); GI50 [15]: 42.9 µM (inactive); GI50 [16]: 28.9 µM (inactive)

Source: ChEMBL document CHEMBL1201862, “PubChem BioAssay data set” (2004)
